HELM strings list units from the 5' end as sugar, base in round brackets, then linkage (d deoxyribose, r ribose, m 2'-O-methyl, p phosphodiester). Strings are as the collection lists them; they lack the last nucleoside at the 3' end of the tested compound. [moe] = 2'-O-(2-methoxyethyl) (MOE); [sp] = phosphorothioate linkage; [m5C] = 5-methylcytosine
Molecular target: SCN2A
Assay: mouse, dose not given
Details: ASO

Row | Substance | 3 h FOB score
1 | RNA1{[moe](G)[sp].[moe]([m5C])p.[moe](T)p.[moe](T)p.[moe](T)p.d([m5C])[sp].d([m5C])[sp].d([m5C])[sp].d(T)[sp].d(T)[sp].d(T)[sp].d(A)[sp].d(T)[sp].d(T)[sp].d([m5C])[sp].[moe](A)p.[moe](A)p.[moe](T)[sp].[moe](A)}$$$$ (last 3' nucleoside missing) | 0 score 0-7
2 | RNA1{[moe](T)[sp].[moe]([m5C])p.[moe](A)p.[moe](T)p.[moe](G)p.d([m5C])[sp].d(A)[sp].d(T)[sp].d(A)[sp].d(A)[sp].d(T)[sp].d([m5C])[sp].d([m5C])[sp].d([m5C])[sp].d(A)[sp].[moe](T)p.[moe](T)p.[moe](A)[sp].[moe](T)}$$$$ (last 3' nucleoside missing) | 0 score 0-7
3 | RNA1{[moe](A)[sp].[moe](G)p.[moe](T)p.[moe](T)p.d(T)[sp].d(T)[sp].d(T)[sp].d(T)[sp].d([m5C])[sp].d(A)[sp].d(T)[sp].d(T)[sp].d(G)[sp].d([m5C])[sp].[moe](A)p.[moe](T)p.[moe]([m5C])p.[moe]([m5C])[sp].[moe](T)}$$$$ (last 3' nucleoside missing) | 3 score 0-7
4 | RNA1{[moe](G)[sp].[moe](T)p.[moe]([m5C])p.[moe](T)p.[moe]([m5C])p.d(T)[sp].d(T)[sp].d(T)[sp].d([m5C])[sp].d(T)[sp].d(T)[sp].d(A)[sp].d(T)[sp].d(T)[sp].d(T)[sp].[moe]([m5C])p.[moe](T)p.[moe](G)[sp].[moe](T)}$$$$ (last 3' nucleoside missing) | 1 score 0-7
5 | RNA1{[moe]([m5C])[sp].[moe]([m5C])p.[moe](A)p.[moe](T)p.d(T)[sp].d(T)[sp].d([m5C])[sp].d(T)[sp].d(A)[sp].d(T)[sp].d(A)[sp].d(A)[sp].d([m5C])[sp].d(T)[sp].[moe]([m5C])p.[moe](A)p.[moe](G)p.[moe]([m5C])[sp].[moe](A)}$$$$ (last 3' nucleoside missing) | 0 score 0-7
6 | RNA1{[moe]([m5C])[sp].[moe]([m5C])p.[moe](G)p.[moe](A)p.[moe](A)p.[moe](T)p.d(T)[sp].d([m5C])[sp].d(T)[sp].d(A)[sp].d(T)[sp].d(T)[sp].d(T)[sp].d(T)[sp].d(A)[sp].d(T)[sp].[moe](A)p.[moe](A)[sp].[moe](A)}$$$$ (last 3' nucleoside missing) | 0 score 0-7
7 | RNA1{[moe]([m5C])[sp].[moe](A)p.[moe](G)p.[moe]([m5C])p.[moe](A)p.[moe](T)p.d(G)[sp].d(T)[sp].d(T)[sp].d(T)[sp].d(A)[sp].d(T)[sp].d([m5C])[sp].d(T)[sp].d(T)[sp].d(A)[sp].[moe](G)p.[moe](T)[sp].[moe](T)}$$$$ (last 3' nucleoside missing) | 0 score 0-7
8 | RNA1{[moe]([m5C])[sp].[moe](T)p.[moe](G)p.[moe](G)p.[moe]([m5C])p.d(T)[sp].d(A)[sp].d(T)[sp].d(A)[sp].d([m5C])[sp].d(T)[sp].d([m5C])[sp].d(A)[sp].d(T)[sp].d(T)[sp].[moe](G)p.[moe]([m5C])p.[moe](T)[sp].[moe]([m5C])}$$$$ (last 3' nucleoside missing) | 0.67 score 0-7
9 | RNA1{[moe](T)[sp].[moe]([m5C])p.[moe](T)p.[moe](A)p.[moe](T)[sp].d(T)[sp].d(T)[sp].d(T)[sp].d(A)[sp].d(T)[sp].d(A)[sp].d(A)[sp].d(A)[sp].[moe](T)p.[moe](G)p.[moe]([m5C])[sp].[moe]([m5C])}$$$$ (last 3' nucleoside missing) | 1.33 score 0-7
10 | RNA1{[moe](T)[sp].[moe](G)p.[moe](T)p.[moe](A)p.d(A)[sp].d([m5C])[sp].d([m5C])[sp].d(T)[sp].d(T)[sp].d(T)[sp].d(A)[sp].d(T)[sp].d(A)[sp].d([m5C])[sp].[moe](A)p.[moe](T)p.[moe](T)p.[moe](T)[sp].[moe](A)}$$$$ (last 3' nucleoside missing) | 0 score 0-7
11 | RNA1{[moe](A)[sp].[moe](A)p.[moe](T)p.[moe](T)p.[moe]([m5C])p.[moe](T)p.d(A)[sp].d(T)[sp].d(T)[sp].d(T)[sp].d(T)[sp].d(A)[sp].d(T)[sp].d(A)[sp].d(A)[sp].d(A)[sp].[moe](T)p.[moe](G)[sp].[moe]([m5C])}$$$$ (last 3' nucleoside missing) | 0.33 score 0-7
12 | RNA1{[moe](G)[sp].[moe]([m5C])p.[moe](A)p.[moe](T)p.[moe](A)p.d(A)[sp].d(T)[sp].d([m5C])[sp].d([m5C])[sp].d([m5C])[sp].d(A)[sp].d(T)[sp].d(T)[sp].d(A)[sp].d(T)[sp].[moe](A)p.[moe]([m5C])p.[moe](A)[sp].[moe](A)}$$$$ (last 3' nucleoside missing) | 0.5 score 0-7
13 | RNA1{[moe](A)[sp].[moe](T)p.[moe]([m5C])p.[moe](A)p.[moe]([m5C])p.d(T)[sp].d(T)[sp].d(T)[sp].d([m5C])[sp].d(A)[sp].d(T)[sp].d([m5C])[sp].d([m5C])[sp].d(A)[sp].d([m5C])[sp].[moe](G)p.[moe](A)p.[moe]([m5C])[sp].[moe](A)}$$$$ (last 3' nucleoside missing) | 1 score 0-7
14 | RNA1{[moe](A)[sp].[moe](A)p.[moe](T)p.[moe]([m5C])p.[moe](A)p.d([m5C])[sp].d(T)[sp].d(T)[sp].d(T)[sp].d([m5C])[sp].d(A)[sp].d(T)[sp].d([m5C])[sp].d([m5C])[sp].d(A)[sp].[moe]([m5C])p.[moe](G)p.[moe](A)[sp].[moe]([m5C])}$$$$ (last 3' nucleoside missing) | 0 score 0-7
15 | RNA1{[moe]([m5C])[sp].[moe](A)p.[moe](G)p.[moe]([m5C])p.d(A)[sp].d(T)[sp].d(A)[sp].d(T)[sp].d(T)[sp].d([m5C])[sp].d(T)[sp].d(A)[sp].d(A)[sp].d([m5C])[sp].[moe](A)p.[moe](T)p.[moe](G)p.[moe](G)[sp].[moe](T)}$$$$ (last 3' nucleoside missing) | 0 score 0-7
16 | RNA1{[moe](A)[sp].[moe](T)p.[moe](G)p.[moe]([m5C])p.d(A)[sp].d(T)[sp].d(A)[sp].d(A)[sp].d(T)[sp].d([m5C])[sp].d([m5C])[sp].d([m5C])[sp].d(A)[sp].d(T)[sp].[moe](T)p.[moe](A)p.[moe](T)p.[moe](A)[sp].[moe]([m5C])}$$$$ (last 3' nucleoside missing) | 0 score 0-7
17 | RNA1{[moe](A)[sp].[moe]([m5C])p.[moe]([m5C])p.[moe]([m5C])p.[moe](A)p.[moe](G)[sp].d(T)[sp].d(T)[sp].d(T)[sp].d(T)[sp].d(T)[sp].d(T)[sp].d([m5C])[sp].d(A)[sp].[moe](T)p.[moe](T)[sp].[moe](G)}$$$$ (last 3' nucleoside missing) | 2 score 0-7
18 | RNA1{[moe](A)[sp].[moe](G)p.[moe]([m5C])p.[moe](A)p.d(T)[sp].d(A)[sp].d(T)[sp].d(T)[sp].d([m5C])[sp].d(T)[sp].d(A)[sp].d(A)[sp].d([m5C])[sp].d(A)[sp].[moe](T)p.[moe](G)p.[moe](G)p.[moe](T)[sp].[moe]([m5C])}$$$$ (last 3' nucleoside missing) | 0 score 0-7
19 | RNA1{[moe]([m5C])[sp].[moe](A)p.[moe](T)p.[moe](G)p.d(T)[sp].d(A)[sp].d(A)[sp].d([m5C])[sp].d([m5C])[sp].d(T)[sp].d(T)[sp].d(T)[sp].d(A)[sp].d(T)[sp].[moe](A)p.[moe]([m5C])p.[moe](A)p.[moe](T)[sp].[moe](T)}$$$$ (last 3' nucleoside missing) | 0 score 0-7
20 | RNA1{[moe](T)[sp].[moe](A)p.[moe](T)p.[moe](T)p.[moe](T)p.d(T)[sp].d(T)[sp].d([m5C])[sp].d(T)[sp].d(A)[sp].d([m5C])[sp].d(A)[sp].d([m5C])[sp].d(T)[sp].d(G)[sp].[moe]([m5C])p.[moe](T)p.[moe](G)[sp].[moe]([m5C])}$$$$ (last 3' nucleoside missing) | 2.67 score 0-7
21 | RNA1{[moe](A)[sp].[moe]([m5C])p.[moe](A)p.[moe](T)p.[moe](A)p.d(T)[sp].d(T)[sp].d(T)[sp].d(T)[sp].d(T)[sp].d([m5C])[sp].d(T)[sp].d(A)[sp].d([m5C])[sp].d(A)[sp].[moe]([m5C])p.[moe](T)p.[moe](G)[sp].[moe]([m5C])}$$$$ (last 3' nucleoside missing) | 0 score 0-7
22 | RNA1{[moe](A)[sp].[moe]([m5C])p.[moe](T)p.[moe](G)p.[moe](G)p.d([m5C])[sp].d(T)[sp].d(A)[sp].d(T)[sp].d(A)[sp].d([m5C])[sp].d(T)[sp].d([m5C])[sp].d(A)[sp].d(T)[sp].[moe](T)p.[moe](G)p.[moe]([m5C])[sp].[moe](T)}$$$$ (last 3' nucleoside missing) | 1.33 score 0-7
23 | RNA1{[moe](A)[sp].[moe]([m5C])p.[moe](G)p.[moe](A)p.[moe]([m5C])p.d(A)[sp].d(T)[sp].d(A)[sp].d(T)[sp].d(T)[sp].d(T)[sp].d(T)[sp].d(T)[sp].d([m5C])[sp].d(T)[sp].[moe](A)p.[moe]([m5C])p.[moe](A)[sp].[moe]([m5C])}$$$$ (last 3' nucleoside missing) | 0 score 0-7
24 | RNA1{[moe](T)[sp].[moe]([m5C])p.[moe](T)p.[moe](A)p.[moe](T)p.[moe](T)[sp].d(T)[sp].d(T)[sp].d(A)[sp].d(T)[sp].d(A)[sp].d(A)[sp].d(A)[sp].d(T)[sp].[moe](G)p.[moe]([m5C])[sp].[moe]([m5C])}$$$$ (last 3' nucleoside missing) | 1 score 0-7
25 | RNA1{[moe](T)[sp].[moe](G)p.[moe](T)p.[moe](A)p.[moe](A)p.[moe]([m5C])p.d([m5C])[sp].d(T)[sp].d(T)[sp].d(T)[sp].d(A)[sp].d(T)[sp].d(A)[sp].d([m5C])[sp].d(A)[sp].d(T)[sp].[moe](T)p.[moe](T)[sp].[moe](A)}$$$$ (last 3' nucleoside missing) | 0 score 0-7
26 | RNA1{[moe](T)[sp].[moe](G)p.[moe]([m5C])p.[moe](A)p.[moe](T)p.[moe](A)p.d(A)[sp].d(T)[sp].d([m5C])[sp].d([m5C])[sp].d([m5C])[sp].d(A)[sp].d(T)[sp].d(T)[sp].d(A)[sp].d(T)[sp].[moe](A)p.[moe]([m5C])[sp].[moe](A)}$$$$ (last 3' nucleoside missing) | 0 score 0-7
